Source: US9890166B2, “Imidazopyrrolidine derivatives and their use in the treatment of disease” (NOVARTIS AG, priority 2013, dated 2018)

Key:
MV-4-11 cells = experiment: Cell growth inhibition assay (CellTiter-Glo), MV-4-11; details: for GI50: Homo sapiens, MV4-11, read-out: MV-4-11 GI50; for MV-4-11 TGI: MV-4-11 cells, total growth inhibition, CellTiter-Glo;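 for all read-outs here: cellular ATP luminescence after 4 days, 3-fold dilution series from 10 µM top dose, vehicle (0.1% DMSO) set to 100%, cell-free medium set to −100%, day 0 corrected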
K-562 cells = experiment: Cell growth inhibition assay (CellTiter-Glo), K-562; details: for GI50: Homo sapiens, K562, read-out: K-562 GI50; for K-562 TGI: K-562 cells, total growth inhibition, CellTiter-Glo;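 for all read-outs here: cellular ATP measured by luminescence after 4 days of exposure, 3-fold dilution series from 10 µM, DMSO vehicle-treated cells define 100%, cell-free medium wells −100%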
THP-1 cells = experiment: Cell growth inhibition assay (CellTiter-Glo), THP-1; details: for GI50: Homo sapiens, THP-1, read-out: THP-1 GI50; for THP-1 TGI: THP-1 cells, total growth inhibition, CellTiter-Glo;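 for all read-outs here: viability read as cellular ATP luminescence after 4 days, 3-fold dilution series from 10 µM, DMSO vehicle-treated cells taken as 100%, cell-free medium wells as −100%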
BRD4 (His-Brd4(44-477)) = BRD4 (His-Brd4(44-477)) (Homo sapiens (Human), UniProt O60885); experiment: TR-FRET in-vitro binding assay for BRD4; details: single determination or n ≧ 2 independent determinations, read-out: Biochemical IC50 BRD4
Experimental: (§1) TR-FRET In-Vitro Binding Assays for BRD2, BRD3, and BRD4:
(§2) All assays were performed in 384 well microtiter plates. Each assay plate contained 8-point serial dilutions for 40 test compounds, plus 16 high- and 16 low controls. Liquid handling and incubation steps were done on an Innovadyne Nanodrop Express equipped with a robotic arm (Thermo CatX, Perkin Elmer/Caliper Twister II) and an incubator (Liconic STX40, Thermo Cytomat 2C450). The assay plates were prepared by addition of 50 nl per well of compound solution in 90% DMSO HummingBird nanodispenser (Zinsser Analytic). […] Reactions were incubated at 30° C. for 35 minutes. […] After 35 minutes incubation at 30° C., plates were measured in a Perkin Elmer EnVision multilabel reader.
(§3) Preparation of Compound Dilutions
(§4) Test compounds were dissolved in DMSO (10 mM) and transferred into 1.4 mL flat bottom or V-shaped Matrix tubes carrying a unique 2D matrix. The stock solutions were stored at […] if not used immediately. For the test procedure the vials were defrosted and identified by a scanner whereby a working sheet was generated that guided the subsequent working steps.
(§5) Compound dilutions were made in 96 well plates. This format enabled the assay of maximally 40 individual test compounds at 8 concentrations (single points) including 4 reference compounds, if desired (known BET inhibitors from the prior art, for this and other assays of the type disclosed herein). The dilution protocol included the production of “pre-dilution plates”, “master plates” and “assay plates”.
(§6) Pre-Dilution Plates: 96 polypropylene well plates were used as pre-dilution plates. A total of 4 pre-dilution plates were prepared including 10 test compounds each on the plate positions A1-A10, one standard compound at A11 and one DMSO control at A12. All dilution steps were done on a HamiltonSTAR robot.
(§7) These plates were used directly for the assay which was performed in a total volume of 13.55 μL.

BRD3 (His-Brd3(20-477)) = BRD3 (His-Brd3(20-477)) (Homo sapiens (Human), UniProt Q15059); experiment: TR-FRET in-vitro binding assay for BRD3; details: single determination or n ≧ 2 independent determinations, read-out: Biochemical IC50 BRD3
Sequence of BRD3 (His-Brd3(20-477)) (Q15059 20-477): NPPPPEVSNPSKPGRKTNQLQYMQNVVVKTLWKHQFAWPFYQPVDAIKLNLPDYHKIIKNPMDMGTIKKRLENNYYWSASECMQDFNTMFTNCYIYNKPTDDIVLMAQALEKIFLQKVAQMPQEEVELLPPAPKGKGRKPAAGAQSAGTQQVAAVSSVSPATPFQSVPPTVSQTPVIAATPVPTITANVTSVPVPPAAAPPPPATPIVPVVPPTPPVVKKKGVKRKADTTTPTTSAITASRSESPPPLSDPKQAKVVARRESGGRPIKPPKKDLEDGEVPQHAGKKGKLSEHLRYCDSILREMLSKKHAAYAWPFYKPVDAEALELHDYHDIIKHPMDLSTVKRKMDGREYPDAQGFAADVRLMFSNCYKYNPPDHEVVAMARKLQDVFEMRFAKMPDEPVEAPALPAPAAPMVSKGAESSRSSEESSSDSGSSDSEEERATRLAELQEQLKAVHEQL
Experimental: as §1, §2, §3, §4, §5, §6, §7

[1] = target: CREBBP bromodomain (His-CREBBP(1081-1197)) (Homo sapiens (Human), UniProt Q92793); experiment: AlphaScreen in-vitro binding assay for CREBBP; details: single determination or n ≧ 2 independent determinations, read-out: Biochemical IC50 CREBBP
Sequence of CREBBP bromodomain (His-CREBBP(1081-1197)) (Q92793 1081-1197): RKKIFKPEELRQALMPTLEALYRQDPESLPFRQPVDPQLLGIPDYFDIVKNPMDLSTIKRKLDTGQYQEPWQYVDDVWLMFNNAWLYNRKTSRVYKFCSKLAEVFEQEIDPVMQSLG
Experimental: AlphaScreen In-Vitro Binding Assay for CREBBP
In order to assess bromodomain selectivity, we set up a binding assay using the bromodomain encoded by the CREBBP gene. […] Reactions were incubated at 30° C. for 35 minutes. Subsequently 4.5 μl per well detection mix (50 mM HEPES, pH 7.5, 0.005% Tween20, 0.02% BSA, 150 mM NaCl, 45 μg/ml Ni-chelate acceptor beads, 45 μg/mIstreptavidin-donor beads) (Perkin Elmer)) were added. After 60 minutes incubation at room temperature, plates were measured in a Perkin Elmer EnVision multilabel reader. IC50 values were determined from percent inhibition values at different compound concentrations by non-linear regression analysis.
as §3, §4, §5, §6, §7

| GI50 (MV-4-11 cells) | GI50 (K-562 cells) | GI50 (THP-1 cells) | IC50 (BRD4 (His-Brd4(44-477))) | IC50 (BRD3 (His-Brd3(20-477))) | IC50 [1] | SMILES | MV-4-11 TGI (MV-4-11 cells) | K-562 TGI (K-562 cells) | THP-1 TGI (THP-1 cells) |
| --- | --- | --- | --- | --- | --- | --- | --- | --- | --- |
| 15.9 nM | 104 nM | 21.2 nM | 21.5 nM | 34 nM | 2700 nM | Cc1cc(N2C(=O)c3nc(C4=CCOCC4)n(C4COC4)c3C2c2ccc(Cl)cc2)cc2c1nnn2C (centres unmarked) [Example 93, 6-(4-chlorophenyl)-2-(3,6-dihydro-2H-pyran-4-yl)-5-(1,4-dimethyl-1H-benzo[d][1,2,3]triazol-6-yl)-1-(oxetan-3-yl)-5,6-dihydropyrrolo[3,4-d]imidazol-4(1H)-one] | 32 nM | >10000 nM | 69.35 nM |
| 40.6 nM | 270 nM | 47.4 nM | 71.5 nM | 46 nM | 8050 nM | Cc1cc(N2C(=O)c3nc(C)n(C4COC4)c3C2c2ccc(Cl)cc2)cc2c1nnn2C (centres unmarked) [Example 94, 6-(4-chlorophenyl)-5-(1,4-dimethyl-1H-benzo[d][1,2,3]triazol-6-yl)-2-methyl-1-(oxetan-3-yl)-5,6-dihydropyrrolo[3,4-d]imidazol-4(1H)-one] | 68.7 nM | >10000 nM | 94.35 nM |
| 28 nM | 85.7 nM | 17 nM | 26.5 nM | 29 nM | 1950 nM | Cc1cc(N2C(=O)c3nc(C4CC4)n(C4COC4)c3C2c2ccc(Cl)cc2)cc2c1nnn2C (centres unmarked) [Example 95, 6(4-chlorophenyl)-2-cyclopropyl-5-(1,4-dimethyl-1H-benzo[d][1,2,3]triazol-6-yl)-1-(oxetan-3-yl)-5,6-dihydropyrrolo[3,4-d]imidazol-4(1H)-one] | 42 nM | >10000 nM | 52.4 nM |
| 79.3 nM | 351 nM | 202 nM | 39 nM | 33.5 nM | 3950 nM | Cc1cc(N2C(=O)c3nc(C4=CCN(C)CC4)n(C4COC4)c3C2c2ccc(Cl)cc2)cc2c1nnn2C (centres unmarked) [Example 96, 6-(4-chlorophenyl)-5-(1,4-dimethyl-1H-benzo[d][1,2,3]triazol-6-yl)-2-(1-methyl-1,2,3,6-tetrahydropyridin-4-yl)-1-(oxetan-3-yl)-5,6-dihydropyrrolo[3,4-d]imidazol-4(1H)-one] | 120.6 nM | >10000 nM | 273.6 nM |
| – | – | – | 16 nM | 18 nM | 960 nM | Cc1cc(N2C(=O)c3nc(C4CCOC4)n(C(C)C)c3C2c2ccc(Cl)cc2)cc2c1nnn2C (centres unmarked) [Example 99, 6-(4-chlorophenyl)-5-(1,4-dimethyl-1H-benzo[d][1,2,3]triazol-6-yl)-1-isopropyl-2-(tetrahydrofuran-3-yl)-5,6-dihydropyrrolo[3,4-d]imidazol-4(1H)-one] | – | – | – |
| 10.8 nM | 90.2 nM | 12.3 nM | 13 nM | 17 nM | 2000 nM | Cc1cc(N2C(=O)c3nc(C4CCOCC4)n(C4COC4)c3C2c2ccc(Cl)cc2)cc2c1nnn2C (centres unmarked) [Example 105, 6-(4-chlorophenyl)-5-(1,4-dimethyl-1H-benzo[d][1,2,3]triazol-6-yl)-1-(oxetan-3-yl)-2-(tetrahydro-2H-pyran-4-yl)-5,6-dihydropyrrolo[3,4-d]imidazol-4(1H)-one] | 21.95 nM | >10000 nM | 27.85 nM |
| 71.5 nM | 330 nM | 91.1 nM | 41 nM | 58 nM | 2250 nM | Cc1cc(N2C(=O)c3nc(C4=CCOCC4)[nH]c3C2c2ccc(Cl)cc2)cn2c(C)nnc12 (centres unmarked) [Example 116, 6-(4-chlorophenyl)-2-(3,6-dihydro-2H-pyran-4-yl)-5-(3,8-dimethyl-[1,2,4]triazolo[4,3-a]pyridin-6-yl)-5,6-dihydropyrrolo[3,4-d]imidazol-4(1H)-one] | 117.5 nM | >10000 nM | 166 nM |
| 69.5 nM | 207 nM | 81 nM | – | – | – | COc1ccc(-c2nc3c([nH]2)C(c2ccc(Cl)cc2)N(c2cc(C)c4nnc(C)n4c2)C3=O)cn1 (centres unmarked) [Example 117, 6-(4-chlorophenyl)-5-(3,8-dimethyl-[1,2,4]triazolo[4,3-a]pyridin-6-yl)-2-(6-methoxypyridin-3-yl)-5,6-dihydropyrrolo[3,4-d]imidazol-4(1H)-one] | 112 nM | >10000 nM | 129 nM |
| 76.6 nM | 227 nM | 79.4 nM | 30 nM | 32 nM | 2600 nM | COc1cc(C(F)(F)F)ccc1-c1nc2c([nH]1)C(c1ccc(Cl)cc1)N(c1cc(C)c3nnc(C)n3c1)C2=O (centres unmarked) [Example 136, 6-(4-chlorophenyl)-5-(3,8-dimethyl-[1,2,4]triazolo[4,3-a]pyridin-6-yl)-2-(2-methoxy-4-(trifluoromethyl)phenyl)-5,6-dihydropyrrolo[3,4-d]imidazol-4(1H)-one] | 114 nM | >10000 nM | 179.5 nM |
| 90.2 nM | 254 nM | 101 nM | 84.5 nM | 89 nM | – | COc1cc(F)ccc1-c1nc2c([nH]1)C(c1ccc(Cl)cc1)N(c1cc(C)c3nnc(C)n3c1)C2=O (centres unmarked) [Example 137] | 124.5 nM | >10000 nM | 213 nM |
| 10.6 nM | 56.8 nM | 8.82 nM | – | – | – | COc1ncccc1-c1nc2c(n1C(C)C)C(c1ccc(Cl)cc1)N(c1cc(C)c3nnn(C)c3n1)C2=O (centres unmarked) [Example 157, 6-(4-chlorophenyl)-5-(3,7-dimethyl-3H-[1,2,3]triazolo[4,5-b]pyridin-5-yl)-1-isopropyl-2-(2-methoxypyridin-3-yl)-5,6-dihydropyrrolo[3,4-d]imidazol-4(1H)-one] | 15.15 nM | >10000 nM | 24.75 nM |
| – | – | – | 31 nM | 43 nM | > 37000 nM | Cc1cc(N2C(=O)c3nc(C4CCOC4)n(C(C)C)c3C2c2ccc(Cl)cc2)nn2c(C)nnc12 (centres unmarked) [Example 170, 6-(4-chlorophenyl)-5-(3,8-dimethyl-[1,2,4]triazolo[4,3-b]pyridazin-6-yl)-1-isopropyl-2-(tetrahydrofuran-3-yl)-5,6-dihydropyrrolo[3,4-d]imidazol-4(1H)-one] | – | – | – |
| – | – | – | 12 nM | < 11 nM | 17800 nM | Cc1cc(N2C(=O)c3nc(C4CCOC4)n(C(C)C)c3[C@H]2c2ccc(Cl)cc2)nn2c(C)nnc12 (stereo partly drawn) [Example 171, (6R)-6-(4-chlorophenyl)-5-(3,8-dimethyl-[1,2,4]triazolo[4,3-b]pyridazin-6-yl)-1-isopropyl-2-(tetrahydrofuran-3-yl)-5,6-dihydropyrrolo[3,4-d]imidazol-4(1H)-one] | – | – | – |

| SMILES | GI50 (MV-4-11 cells) | GI50 (K-562 cells) | GI50 (THP-1 cells) | IC50 (BRD4 (His-Brd4(44-477))) | IC50 (BRD3 (His-Brd3(20-477))) | IC50 [1] | MV-4-11 TGI (MV-4-11 cells) | K-562 TGI (K-562 cells) | THP-1 TGI (THP-1 cells) |
| --- | --- | --- | --- | --- | --- | --- | --- | --- | --- |
| Cc1nc2c([nH]1)C(c1ccc(Cl)cc1)N(c1cc(C)c3nnn(C)c3c1)C2=O (centres unmarked) [Example 1, 6-(4-chlorophenyl)-5-(3,7-dimethyl-3H-benzo[d][1,2,3]triazol-5-yl)-2-methyl-5,6-dihydropyrrolo[3,4-d]imidazol-4(1H)-one] | 26.3 nM | 160 nM | 38.4 nM | – | – | – | 52.35 nM | >10000 nM | 79.9 nM |
